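Each compound was tested at five concentrations against cells in 96-well plates for 48 hours. GI50 is the concentration that inhibits growth by half. Definition used: TGI = concentration required for complete inhibition of growth.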

Experiment in all cases: NCI-60 cell line screen, 48 h
The test system of experiment [1] is A498 renal.
Experiment [2] relates to A549 NSCLC.
The test system of experiment [3] is HCT-116 colon.
Experiment [4] concerns HL-60(TB) leukemia.
The subject of experiment [5] is HOP-92 NSCLC.
Experiment [6] concerns OVCAR-3 ovarian.
The subject of experiment [7] is OVCAR-4 ovarian.
The test system of experiment [8] is SK-OV-3 ovarian.
In experiment [9] the test system is SNB-19 CNS.
The subject of experiment [10] is NCI-H226 lung.

For `COC(=O)CCC/C=C\C[C@H]1C=CC(=O)/C1=C/C[C@@H](O)CCc1cccc(C(F)(F)F)c1`, the GI50 in experiment [1] is 5.93 µM; in [2], 3.55 µM; in experiment [3], 1.78 µM; in [4], 2.53 µM; in experiment [5], 3.1 µM; in experiment [6], 1.97 µM. Besides, the results for the GI50 in [7], in experiment [8] and in experiment [9] were 3.47 µM, 4.94 µM and 4.04 µM, respectively. The TGI in experiment [1] turned out to be 18.2 µM; in experiment [2], 12.2 µM; in [3], 4 µM; in [4], 7.17 µM; in [5], 7.94 µM; in experiment [6] it was 4.08 µM. Moreover, the TGI was found to be 14.1 µM in experiment [7], 16.5 µM in [8] and 16.6 µM in experiment [9].
As for `CC(=O)NC(CCCCNC(=O)OCc1ccccc1)C(=O)NCc1ccccc1` (stereo unspecified), the TGI in experiment [1], in [2], in experiment [3], in experiment [5], in experiment [10] and in experiment [6] was greater than 100 µM in each case. For the same molecule, the TGI in experiment [7], in experiment [8] and in experiment [9] was greater than 100 µM throughout.
`O=C(C(O)c1cn(Cc2ccccc2)c2ccccc12)N1CCCCC1` (stereo unspecified): the TGI in [1], in experiment [2], in experiment [3], in experiment [4], in [5] and in [10] was greater than 100 µM each time. Further, the TGI in [6], in experiment [8] and in [9] was greater than 100 µM each time.
For the molecule `C=CCCCCCCCCCCCC1CCC(CC)N1` (stereo unspecified), the TGI in experiment [1] was determined as 38.4 µM; in experiment [2] it was 24.8 µM; in [3], 20.1 µM; in experiment [4], 9.01 µM; in experiment [10] it was 49.1 µM; in experiment [6], 23 µM. The TGI in [7] worked out at 21.3 µM; in [8], 31.6 µM; in experiment [9], 36.3 µM.
With `Nc1c(C(=O)c2ccccc2)sc2nc(-c3cccs3)ccc12`, the GI50 was 0.185 µM in experiment [1]; 0.492 µM in [2]; 0.0533 µM in experiment [3]; 0.486 µM in experiment [5]; 2.11 µM in experiment [10]; 0.0468 µM in experiment [6]. Also, the GI50 in experiment [7] is 0.902 µM; in [8] it was 0.389 µM; in experiment [9], 0.432 µM. In addition, the TGI in experiment [1] came to 3.91 µM; in experiment [2] it was 4.8 µM; in [3], 1.96 µM; in experiment [5], 7.31 µM; in experiment [10], 12.5 µM; in [6] it was 1.05 µM. In addition, the figures for the TGI in [7], in [8] and in experiment [9] were 6.72 µM, 18.4 µM and 10.3 µM, respectively.
Turning to `CC[N+](CCCCCCCCCC[N+](CC)(c1ccccn1)c1ccccn1)(c1ccccn1)c1ccccn1`, the GI50 in experiment [1] is 1.02 µM; in [2] it was 0.456 µM; in experiment [3] it was 0.851 µM; in experiment [4], 0.554 µM; in experiment [10], 2.04 µM; in experiment [6] it was 1.09 µM. The GI50 was 1.01 µM in [7], 2.22 µM in [8] and 0.761 µM in [9]. Also, the TGI is 5.58 µM in experiment [1]; greater than 100 µM in experiment [2]; greater than 100 µM in experiment [3]; 2.93 µM in experiment [4]; 22.3 µM in experiment [10]; 10.1 µM in experiment [6]. In addition, the TGI was greater than 100 µM in experiment [7], 9.28 µM in [8] and 27.3 µM in experiment [9].
With `COC(=O)c1c(-c2ccccc2)cc2c3cc(-c4ccccc4)c(C(=O)OC)n3c3ccccc3n12`, the TGI in experiment [1], in [2], in [3], in experiment [4], in [10] and in [6] was greater than 100 µM throughout. Further, the TGI was greater than 31.6 µM in [7], greater than 100 µM in experiment [8] and greater than 100 µM in [9].
`Cc1cc2nc3c(C(OC4OC(CO)C(O)C(O)C4O)C(O)CO)nn(-c4ccccc4)c3nc2cc1C` (stereo unspecified): the TGI in experiment [1], in [3], in [6], in experiment [7], in [8] and in experiment [9] was greater than 100 µM throughout.
For the molecule `COC1=CC23C=CC1[C@@H](c1ccccc1)C2=C(C)C(=O)N3C(=O)NC1CCCCC1` (stereo partly specified), the TGI in [1] is 64.1 µM; in experiment [2], 79.8 µM; in experiment [3], 28.3 µM; in [4], greater than 100 µM; in experiment [5] it was 47.5 µM; in experiment [10], 46.6 µM. The TGI is 59.8 µM in experiment [6], 93.5 µM in experiment [8] and greater than 100 µM in experiment [9].
Regarding `Oc1ccc(Br)cc1Sc1cc(Br)ccc1O`, the GI50 in experiment [1] is 15.5 µM; in [2] it was 5.09 µM; in experiment [3] it was 6 µM; in [4], 4.98 µM; in experiment [10], 18.1 µM; in [6] it was 4.98 µM. In addition, the GI50 in experiment [7] is 4.72 µM; in [8], 14.9 µM; in experiment [9] it was 4.88 µM. In addition, the TGI came out at 31.1 µM in experiment [1]; 22 µM in experiment [2]; 24.3 µM in [3]; 25 µM in experiment [4]; 41.9 µM in experiment [10]; 18 µM in experiment [6]. For the same molecule, the results for the TGI in [7], in [8] and in [9] were 18.1 µM, 29.7 µM and 25.2 µM, respectively.
`O=C1c2cc(Br)ccc2-c2c1c1ccc([N+](=O)[O-])cc1c(=O)n2CCCCl`: the GI50 is 2.2 µM in [1]; 0.114 µM in experiment [2]; 1.05 µM in experiment [3]; 0.453 µM in experiment [5]; 0.1 µM in experiment [10]; 1.11 µM in experiment [6]. Further, the results for the GI50 in experiment [7], in experiment [8] and in [9] were 11.2 µM, 0.16 µM and less than 0.01 µM, respectively. Further, the TGI in [1] is 19.4 µM; in experiment [2] it was greater than 33.9 µM; in [3] it was 5.94 µM; in experiment [5] it was 23.9 µM; in [10], 3.59 µM; in experiment [6], 14.5 µM. Besides, the results for the TGI in experiment [7], in experiment [8] and in experiment [9] were 77.7 µM, 16 µM and 7.19 µM, respectively.
On to `CC(=O)N/C(=C\c1ccc(/C=C(\NC(C)=O)c2nc3ccc(Cl)cc3[nH]2)cc1)c1nc2ccccc2[nH]1`, for which the TGI in experiment [1], in experiment [2], in experiment [3], in experiment [5], in experiment [10] and in experiment [6] was greater than 100 µM throughout. The TGI in experiment [8] and in experiment [9] was greater than 100 µM throughout.
For `COc1cc(/C=C/c2cc(C(F)(F)F)[nH]c(=O)n2)ccc1OCc1ccccc1F`, the GI50 in experiment [1] is 1.73 µM; in [2], 6.97 µM; in experiment [3] it was 7.12 µM; in experiment [4], 9.25 µM; in experiment [10], 11.9 µM; in [6] it was 4.72 µM. For the same molecule, the GI50 was 7.6 µM in [7], 16.3 µM in experiment [8] and 11.5 µM in [9]. Moreover, the TGI amounted to 8.6 µM in [1]; 40.3 µM in experiment [2]; 19.6 µM in experiment [3]; 68.2 µM in experiment [4]; 43.2 µM in experiment [10]; 17.4 µM in experiment [6]. The TGI was determined as 67.9 µM in [7], 50.8 µM in experiment [8] and 30.1 µM in [9].
For `CCCCC#COP(=O)(OCC)OCC`, the TGI in experiment [1], in experiment [2], in experiment [3], in experiment [4], in experiment [10] and in [6] was greater than 100 µM in each case. The TGI in [7], in experiment [8] and in [9] was greater than 100 µM throughout.
For the molecule `O=C(Nc1ccccc1)c1ccc(Cl)c([N+](=O)[O-])c1`, the TGI in experiment [1] is 63.9 µM; in experiment [2], greater than 100 µM; in experiment [10], 68.4 µM; in [6], 43.5 µM; in experiment [8], 65 µM; in [9] it was 97.4 µM.
For the molecule `CCN(CC)CCC1CC/C(=C\c2ccc(OC)cc2)C1=O` (stereo unspecified), the TGI in experiment [1], in experiment [2], in experiment [3], in experiment [4], in experiment [5] and in experiment [10] was greater than 100 µM in each case. In addition, the TGI in experiment [6], in experiment [7] and in experiment [9] was greater than 100 µM in each case.

(Values after PubChem BioAssay (NCI).)
